According to PMC12040169 (PLOS Biology, 2025):

Test: in vitro
Settings: human, hela cells, % viability

Row | SMILES | viability at 28.5 h, 10 µM [%]
1 | COc1ccc(CCNC(=O)N(CCC#N)C2CCCCC2)cc1OC [CBK156363] | 108
2 | N#CCCN(C(=O)Nc1ccc2c(c1)OCCO2)C1CCCCC1 [CBK156364] | 92.3
3 | N#CCCN(C(=O)Nc1ccc(Cl)cc1)C1CCCCC1 [CBK156365] | 89.1
4 | N#CCCN(C(=O)NCc1ccc(F)cc1)C1CCCCC1 [CBK156372] | 86.5
5 | CC(C)CCNC(=O)N(CCC#N)C1CCCCC1 [CBK156378] | 91.6
6 | N#CCCN(C(=O)NCCCN1CCCC1=O)C1CCCCC1 [CBK156379] | 85.5
7 | CCOC(=O)N1CCC(NC(=O)N(CCC#N)C2CCCCC2)CC1 [CBK156384] | 90.9
8 | O=C(NCc1cccc(C(F)(F)F)c1)N1CCN(c2ccc(F)cc2)CC1 [CBK156390] | 89.4
9 | Cc1cnc(CNC(=O)N2CCN(c3ccc(F)cc3)CC2)cn1 [CBK156392] | 93.7
10 | O=C(NCCc1c[nH]cn1)N1CCN(c2ccc(F)cc2)CC1 [CBK156394] | 85.1
11 | O=C(Nc1cccnc1)N1CCN(c2ccc(F)cc2)CC1 [CBK156427] | 92.7
12 | CCOC(=O)N1CCC(NC(=O)N2CCN(c3ccc(F)cc3)CC2)CC1 [CBK156429] | 106
13 | CN1CCN(CCCNC(=O)N2CCN(c3cc(C(F)(F)F)ccn3)CC2)CC1 [CBK156431] | 93.7
14 | O=C(NCC1COc2ccccc2O1)N1CCN(c2cc(C(F)(F)F)ccn2)CC1 (stereo not shown) [CBK156432] | 88.2
15 | O=C(NCc1ccc(Cl)c(Cl)c1)N1CCN(c2cc(C(F)(F)F)ccn2)CC1 [CBK156434] | 94.3
16 | O=C1CC2(CCN(C(=O)c3ccncc3)CC2)Oc2c(Br)cc(Br)cc21 [CBK156437] | 95.7
17 | COc1ccc2c(c1)C(=O)CC1(CCN(C(=O)/C=C/c3ccc(C)cc3)CC1)O2 [CBK156438] | 98.3
18 | Cc1ccc(/C=C/C(=O)N2CCC3(CC2)CC(=O)c2cc(Cl)ccc2O3)cc1 [CBK156439] | 95.1
19 | Cc1c(OCc2ccccc2)ccc2c1OC1(CCN(C(=O)c3ccccn3)CC1)CC2=O [CBK156441] | 106
20 | O=C1CC2(CCN(C(=O)c3ccoc3)CC2)Oc2ccc3ccccc3c21 [CBK156444] | 91
21 | Cc1c(OCc2ccccc2)ccc2c1OC1(CCN(C(=O)c3ccsc3)CC1)CC2=O [CBK156445] | 109
22 | O=C1CC2(CCN(C(=O)c3ccccc3F)CC2)Oc2c(Cl)cc(Cl)cc21 [CBK156453] | 91.8

Row | SMILES | viability at 28.5 h, 10 µM [%]
23 | CC(=O)c1ccc(C(=O)N2CCC3(CC2)CC(=O)c2ccc4ccccc4c2O3)cc1 [CBK156458] | 104
24 | COc1cc(OC)c2c(c1)OC1(CCN(C(=O)C3CCCO3)CC1)CC2=O (stereo not shown) [CBK156476] | 93.3
25 | CC(=O)CCCCC(=O)N1CCC2(CC1)CC(=O)c1cc(C)c(C)cc1O2 [CBK156497] | 106
26 | COc1cc(OC)c2c(c1)OC1(CCN(C(=O)c3cnc(C)cn3)CC1)CC2=O [CBK156503] | 105
27 | Cc1noc(C)c1C(=O)N1CCC2(CC1)CC(=O)c1cc(Br)ccc1O2 [CBK156508] | 90
28 | Cc1cc2c(cc1Cl)C(=O)CC1(CCN(C(=O)C3CC(=O)OC3(C)C)CC1)O2 (stereo not shown) [CBK156514] | 94.8
29 | CN1CCC2(CC1)CC(=O)c1cc(-c3ccc(C(=O)N(C)CCC#N)cc3)ccc1O2 [CBK156518] | 89
30 | Cc1ccc(NC(=O)CCC(=O)N2CCC3(CC2)CC(=O)c2ccccc2O3)cc1 [CBK156524] | 94.1
31 | O=C(CCC(=O)N1CCC2(CC1)CC(=O)c1ccccc1O2)NCC1CCCO1 (stereo not shown) [CBK156525] | 86.2
32 | O=C(COc1ccc(F)cc1)N1CCC2(CCNC2)C1 (stereo not shown) [CBK156691C] | 92.5
33 | O=C(C(c1ccccc1)c1ccccc1)N1CCC2(CCNC2)C1 (stereo not shown) [CBK156729C] | 92.3
34 | Cc1nc(S(=O)(=O)Nc2ccc3[nH]ccc3c2)cn1C [CBK156800] | 68.3
35 | COC(=O)c1ccc2c(c1)C(=O)N(c1ccc(C(=O)OCC(C)C)cc1)C2=O [CBK156802] | 92.1
36 | O=S(=O)(Nc1ccc2[nH]ccc2c1)c1cccnc1 [CBK156811] | 71
37 | COc1ccc(S(=O)(=O)N2CCN(C(=O)c3ccc(C(C)(C)C)cc3)CC2)cc1 [CBK157251] | 111
38 | CCCCc1ccc(NC(=S)NC(=O)c2ccc(OC)c(OC)c2)cc1 [CBK157691] | 100
39 | CCN(CC)C(=O)C1CCN(S(=O)(=O)c2ccc(C)cc2)CC1 [CBK157834] | 98.7
40 | CCNC(=O)c1ccc(-c2ccc(C(=O)N(C)C)cc2)nc1 [CBK158361] | 91.7
41 | Cc1ccc(CNC(=O)Cc2ccc(-c3ccc(CN4CCC(C)CC4)cc3)nc2)cc1F [CBK158402] | 97.4
42 | Cc1onc(-c2ccccc2)c1C(=O)N1CCN(CCN2CCCC2)CC1 [CBK158558] | 98.6
43 | CSCCCNC(=O)c1cc(-c2ccc(C(=O)N3CCOCC3)cc2)cnc1N [CBK158568] | 95.5
44 | CN1CCC(N2CCN(C(=O)c3cncc(-c4ccc(C(=O)N5CCOCC5)cc4)c3)CC2)CC1 [CBK158600] | 115

Row | SMILES | viability at 28.5 h, 10 µM [%]
45 | O=C(NCc1cccs1)c1cncc(-c2ccc(C(=O)N3CCOCC3)cc2)c1 [CBK158617] | 87.4
46 | CN(C)CCNC(=O)c1cncc(-c2ccc(C(=O)N3CCOCC3)cc2)c1 [CBK158619] | 95.6
47 | NS(=O)(=O)c1ccc(CNC(=O)c2cncc(-c3ccc(C(=O)N4CCOCC4)cc3)c2)cc1 [CBK158641] | 100
48 | CS(=O)(=O)c1ccc(-c2ccc3c(c2)COC(C2CCN(C(=O)c4ccccc4O)CC2)O3)cc1 (stereo not shown) [CBK158682] | 85.3
49 | CCOC(=O)C1CCN(C(=O)c2c(-c3ccccc3)noc2C)CC1 [CBK158704] | 86.3
50 | CCN(CC)C(=O)CN(CCc1ccc(OC)c(OC)c1)C(=O)NCCCSC [CBK158725] | 94.8
51 | CCN(CC)C(=O)CN(CCc1ccc(OC)c(OC)c1)C(=O)NCCc1c[nH]c2ccccc12 [CBK158741] | 91.1
52 | CCN(CC)C(=O)CN(CCc1ccc(OC)c(OC)c1)C(=O)NCc1c(Cl)cccc1Cl [CBK158743] | 89.9
53 | COc1ccc(CCN(Cc2ccc(Cl)c(Cl)c2)C(=O)NCCCSC)cc1OC [CBK158758] | 91.1
54 | COc1ccc(CCN(Cc2ccc(Cl)c(Cl)c2)C(=O)NCc2ccc(C#N)cc2)cc1OC [CBK158771] | 100
55 | CC(C)c1noc(N2CCC(Oc3ccc(-c4ccc(S(C)(=O)=O)cc4)cn3)CC2)n1 [CBK158821] | 84.6
56 | CC(=O)Nc1ccc(-c2ccc(C(=O)N3CCN(C4CCN(C)CC4)CC3)cn2)cc1 [CBK158824] | 96.7
57 | CC(=O)Nc1ccc(-c2ccc(C(=O)NCc3ccc(OC(F)(F)F)cc3)cn2)cc1 [CBK158830] | 98.6
58 | CC(=O)Nc1ccc(-c2ccc(C(=O)NCC3COc4ccccc4O3)cn2)cc1 (stereo not shown) [CBK158832] | 99.3
59 | CC(=O)Nc1ccc(-c2ccc(C(=O)NCCc3ccc(O)cc3)cn2)cc1 [CBK158840] | 105
60 | CN1CCC(N2CCN(C(=O)c3ccc(-c4ccc(S(C)(=O)=O)cc4)nc3)CC2)CC1 [CBK158862] | 91.6
61 | CS(=O)(=O)c1ccc(-c2ccc(C(=O)NCc3cccc(C(F)(F)F)c3)cn2)cc1 [CBK158874] | 91.4
62 | CCNC(=O)c1ccc(-c2ccc(S(C)(=O)=O)cc2)nc1 [CBK158882] | 91.9
63 | CS(=O)(=O)c1ccc(-c2ccc(C(=O)NCc3ccccc3)cn2)cc1 [CBK158885] | 89.2
64 | Cc1cc(CNC(=O)N2CCN(CCc3ccccc3)CC2)no1 [CBK158898] | 92.7
65 | O=C(NCc1cccc(C(F)(F)F)c1)N1CCN(CCc2ccccc2)CC1 [CBK158902] | 90.1
66 | O=C(NC(c1ccccc1)c1ccccc1)N1CCN(CCc2ccccc2)CC1 [CBK158905] | 101

Row | SMILES | viability at 28.5 h, 10 µM [%]
67 | O=C(NCc1cccnc1)N1CCN(CCc2ccccc2)CC1 [CBK158906] | 93.7
68 | COCCNC(=O)N1CCN(CCc2ccccc2)CC1 [CBK158909] | 97.3
69 | COc1ccc(CCNC(=O)N2CCN(CCc3ccccc3)CC2)cc1OC [CBK158915] | 102
70 | O=C(NCc1ccc(Cl)cc1)N1CCN(CCc2ccccc2)CC1 [CBK158922] | 90.7
71 | O=C1CCCN1CCCNC(=O)N1CCN(CCc2ccccc2)CC1 [CBK158932] | 91
72 | CC(NC(=O)N1CCN(CCc2ccccc2)CC1)c1ccccc1 (stereo not shown) [CBK158935] | 85.1
73 | O=C(Nc1cccnc1)N1CCN(CCc2ccccc2)CC1 [CBK158937] | 95.4
74 | CCN(CC)CCN(C(=O)Nc1ccc(C(N)=O)cc1)C(C)c1ccc(OC)c(OC)c1 (stereo not shown) [CBK158962] | 108
75 | COc1ccc(C(C)N(CCN2CCOCC2)C(=O)NCc2cccnc2)cc1OC (stereo not shown) [CBK158986] | 114
76 | CCN(CC)CCN(Cc1ccc2c(c1)OCO2)C(=O)Nc1cccc(NC(C)=O)c1 [CBK159042] | 108
77 | CCN(CC)CCN(Cc1ccc2c(c1)OCO2)C(=O)Nc1ccc(C)cc1 [CBK159059] | 89.3
78 | CC(C)CN(Cc1ccc2c(c1)OCO2)C(=O)NCc1ccc(Cl)c(Cl)c1 [CBK159069] | 95.3
79 | CC(C)CN(Cc1ccc2c(c1)OCO2)C(=O)NCc1ccc2c(c1)OCO2 [CBK159071] | 96.4
80 | COc1ccc(CN(CCCN2CCOCC2)C(=O)NCCCN2CCCC2=O)cc1OC [CBK159180] | 93.2
81 | CCOC(=O)N1CCC(NC(=O)N(CCCN(C)C)Cc2ccc3c(c2)OCO3)CC1 [CBK159231] | 91
82 | COc1ccc(CN(CCN(C)C)C(=O)NCc2ccc(-c3ccccc3)cc2)cc1OC [CBK159293] | 91.4
83 | COc1ccc(CN(CCN2CCOCC2)C(=O)Nc2cccnc2)cc1OC [CBK159379] | 93.2
84 | CCN(CC)c1ccc(CN(CCCN(C)C)C(=O)NCc2ccc(F)cc2)cc1 [CBK159410] | 89.9
85 | CSCCCNC(=O)N(Cc1cccnc1)Cc1ccc2c(c1)OCO2 [CBK159426] | 92.7
